The values that follow come from patent US8673950B2, “Dihydrooxazol-2-amine derivatives” (Hoffmann-LaRoche Inc., priority 2010, dated 2014).

The target of one test is mouse TAAR1 (Mus musculus (Mouse), UniProt Q923Y8). Nature of the test: Radioligand binding assay on mouse TAAR1. Particulars: mouse TAAR1, membranes of stably transfected HEK-293 cells; first value of cell mouse/rat. As for the experimental part: (§1) Construction of TAAR Expression Plasmids and Stably Transfected Cell Lines
(§2) For the construction of expression plasmids the coding sequences of human, rat and mouse TAAR 1 were amplified from genomic DNA essentially as described by Lindemann et al.. The Expand High Fidelity PCR System (Roche Diagnostics) was used with 1.5 mM Mg^2+ and purified PCR products were cloned into pCR2.1-TOPO cloning vector (Invitrogen) following the instructions of the manufacturer. PCR products were subcloned into the pIRESneo2 vector (BD Clontech, Palo Alto, Calif.), and expression vectors were sequence verified before introduction in cell lines.
(§3) HEK293 cells (ATCC # CRL-1573) were cultured essentially as described by Lindemann et al. (2005). For the generation of stably transfected cell lines HEK293 cells were transfected with the pIRESneo2 expression plasmids containing the TAAR coding sequences (described above) with Lipofectamine 2000 (Invitrogen) according to the instructions of the manufacturer, and 24 hrs post transfection the culture medium was supplemented with 1 mg/ml G418 (Sigma, Buchs, Switzerland). After a culture period of about 10 d clones were isolated, expanded and tested for responsiveness to trace amines (all compounds purchased from Sigma) with the cAMP Biotrak Enzyme immunoassay (EIA) System (Amersham) following the non-acetylation EIA procedure provided by the manufacturer.
Radioligand Binding Assay on Mouse TAAR1
(§4) Membrane Preparation and Radioligand Binding.
(§5) HEK-293 cells stably expressing mouse TAAR1 were maintained at 37° C. and 5% CO2 in DMEM high glucose medium, containing fetal calf serum (10%, heat inactivated for 30 min at 56° C.), penicillin/streptomycin (1%), and 375 μg/ml geneticin (Gibco). Cells were released from culture flasks using trypsin/EDTA, harvested, washed twice with ice-cold PBS (without Ca^2+ and Mg^2+), pelleted at 1'000 rpm for 5 min at 4° C., frozen and stored at −80° C. Frozen pellets were suspended in 20 ml HEPES-NaOH (20 mM, pH 7.4) containing 10 mM EDTA and homogenized with a Polytron (PT 6000, Kinematica) at 14'000 rpm for 20 s. The homogenate was centrifuged at 48'000×g for 30 min at 4° C. Subsequently, the supernatant was removed and discarded, and the pellet resuspended in 20 ml HEPES-NaOH (20 mM, pH 7.4) containing 0.1 mM EDTA using the Polytron (20 s at 14'000 rpm). This procedure was repeated and the final pellet resuspended in HEPES-NaOH containing 0.1 mM EDTA and homogenized using the Polytron. Typically, aliquots of 2 ml membrane portions were stored at −80° C. With each new membrane batch the dissociation constant (Kd) was determined via a saturation curve. The TAAR1 radioligand ^3[H]-(S)-4-[(ethyl-phenyl-amino)-methyl]-4,5-dihydro-oxazol-2-ylamine (described in WO 2008/098857) was used at a concentration equal to the calculated Kd value, that was usually around 0.7 nM, resulting in the binding of approximately 0.5% of the radioligand and a specific binding representing approximately 70% of the total binding. Nonspecific binding was defined as the amount of ^3[H]-(S)-4-[(ethyl-phenyl-amino)-methyl]-4,5-dihydro-oxazol-2-ylamine bound in the presence of 10 μM unlabeled ligand. All compounds were tested at a broad range of concentrations (10 μM to 10 μM) in duplicates. […] The 96 deep well plates were incubated for 1 hr at 4° C. Incubations were terminated by rapid filtration through Unifilter-96 plates (Packard Instrument Company) and glass filters GF/C (Perkin Elmer) presoaked for 1 hr in polyethylenimine (0.3%) and washed 3 times with 1 ml of cold binding buffer. After addition of 45 μl of Microscint 40 (PerkinElmer) the Unifilter-96 plate was sealed and after 1 hr the radioactivity counted using a TopCount Microplate Scintillation Counter (Packard Instrument Company).

The target of a further test is rat TAAR1 (Rattus norvegicus (Rat), UniProt Q923Y9). Nature of the test: Radioligand binding assay on rat TAAR1. The settings on record: rat TAAR1, membranes of stably transfected HEK-293 cells; second value of cell mouse/rat. On the procedure: as §1, §2, §3
rat TAAR1, sequence (Q923Y9 whole entry): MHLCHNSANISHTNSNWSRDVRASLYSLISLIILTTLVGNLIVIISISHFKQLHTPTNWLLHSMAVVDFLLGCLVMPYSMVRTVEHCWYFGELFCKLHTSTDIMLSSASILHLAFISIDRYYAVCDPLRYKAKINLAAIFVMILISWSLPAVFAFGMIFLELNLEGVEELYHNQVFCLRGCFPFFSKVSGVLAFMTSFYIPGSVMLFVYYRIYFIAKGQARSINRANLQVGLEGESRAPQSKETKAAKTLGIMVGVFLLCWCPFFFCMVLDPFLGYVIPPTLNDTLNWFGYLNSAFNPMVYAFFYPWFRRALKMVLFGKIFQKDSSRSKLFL
Radioligand Binding Assay on Rat TAAR1
as §4
as §5, with “expressing rat” for “expressing mouse”, “curve. […]” for “curve. The TAAR1 radioligand ^3[H]-(S)-4-[(ethyl-phenyl-amino)-methyl]-4,5-dihydro-oxazol-2-ylamine (described in WO 2008/098857) was used at a concentration equal to the calculated Kd value, that was usually around 0.7 nM, resulting in the binding of approximately 0.5% of the radioligand and a specific binding representing approximately 70% of the total binding.”, “(10 pM” for “(10 μM”

mouse TAAR1, sequence (Q923Y8 whole entry): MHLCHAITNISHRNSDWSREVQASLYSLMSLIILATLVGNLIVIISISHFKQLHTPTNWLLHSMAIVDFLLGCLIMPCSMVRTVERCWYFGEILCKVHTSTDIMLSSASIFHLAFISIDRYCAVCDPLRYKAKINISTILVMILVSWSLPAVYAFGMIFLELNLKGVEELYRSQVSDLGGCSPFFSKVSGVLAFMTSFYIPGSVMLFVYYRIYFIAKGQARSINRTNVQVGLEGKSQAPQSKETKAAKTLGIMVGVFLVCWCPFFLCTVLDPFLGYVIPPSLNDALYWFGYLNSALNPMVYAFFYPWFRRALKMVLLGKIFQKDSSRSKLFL

For orientation: Ki means a dissociation constant, usually derived from enzyme kinetics or from competition with a known ligand. With `NC1=N[C@@H](CCc2ccc(Nc3cccc4cccnc34)cc2)CO1` [Example 1, (S)-4-(4-(Quinolin-8-ylamino)phenethyl)-4,5-dihydrooxazol-2-amine], the inhibition constant (Ki) is 0.0035 µM at mouse TAAR1 and 0.0006 µM at rat TAAR1.

`NC1=N[C@@H](CCc2ccc(Nc3cccc4ccccc34)cc2)CO1` [Example 2, (S)-4-(4-(Naphthalen-1-ylamino)phenethyl)-4,5-dihydrooxazol-2-amine]: the Ki at mouse TAAR1 amounted to 0.0021 µM; at rat TAAR1, 0.0001 µM.

`NC1=N[C@@H](CCc2ccc(Nc3ccc(F)cn3)cc2)CO1` [Example 3, (S)-4-(4-(5-Fluoropyridin-2-ylamino)phenethyl)-4,5-dihydrooxazol-2-amine]: the Ki at mouse TAAR1 stood at 0.0022 µM; at rat TAAR1 it was 0.0002 µM.

For the compound `Cc1cc(Nc2ccc(CC[C@H]3COC(N)=N3)cc2)c2ncccc2c1` [Example 4, (S)-4-(4-(6-Methylquinolin-8-ylamino)phenethyl)-4,5-dihydrooxazol-2-amine], the values for the Ki at mouse TAAR1 and on rat TAAR1 were 0.0021 µM and 0.0006 µM, respectively.

As to `NC1=N[C@@H](CCc2ccc(Nc3cccc4cccc(Cl)c34)cc2)CO1` [Example 5, (S)-4-(4-(8-Chloronaphthalen-1-ylamino)phenethyl)-4,5-dihydrooxazol-2-amine], the Ki at mouse TAAR1 worked out at 0.0262 µM; on rat TAAR1, 0.0033 µM.

Regarding `NC1=N[C@@H](CCc2ccc(Nc3ccc(Cl)cc3)cc2)CO1` [Example 6, (S)-4-{2-[4-(4-Chloro-phenylamino)-phenyl]-ethyl}-4,5-dihydro-oxazol-2-ylamine], the Ki amounted to 0.0002 µM on mouse TAAR1 and 0.0001 µM on rat TAAR1.

For `NC1=N[C@@H](CCc2ccc(Nc3ccc(Cl)cc3F)cc2)CO1` [Example 7, (S)-4-{2-[4-(4-Chloro-2-fluoro-phenylamino)-phenyl]-ethyl}-4,5-dihydro-oxazol-2-ylamine], the Ki at mouse TAAR1 stood at 0.0017 µM; at rat TAAR1, 0.0001 µM.

`NC1=N[C@@H](CCc2ccc(Nc3ccc(C(F)(F)F)cc3)cc2)CO1` [Example 8, (S)-4-{2-[4-(4-Trifluoromethyl-phenylamino)-phenyl]-ethyl}-4,5-dihydro-oxazol-2-ylamine]: the Ki at mouse TAAR1 and on rat TAAR1 was 0.0002 µM throughout.

In the case of `COc1ccc(Nc2ccc(CC[C@H]3COC(N)=N3)cc2)cc1` [Example 9, (S)-4-{2-[4-(4-Methoxy-phenylamino)-phenyl]-ethyl}-4,5-dihydro-oxazol-2-ylamine], the Ki on mouse TAAR1 turned out to be 0.0032 µM; on rat TAAR1, 0.0002 µM.

In the case of `Cc1cc(Nc2ccc(CC[C@H]3COC(N)=N3)cc2)ccc1OC(F)(F)F` [Example 10, (S)-4-(4-(3-Methyl-4-(trifluoromethoxy)phenylamino)phenethyl)-4,5-dihydrooxazol-2-amine], the inhibition constant Ki at mouse TAAR1 and at rat TAAR1 was 0.0001 µM each time.

Regarding `NC1=N[C@@H](CCc2ccc(Nc3ccc(C(F)(F)F)cn3)cc2)CO1` [Example 11, {4-[2-((S)-2-Amino-4,5-dihydro-oxazol-4-yl)-ethyl]-phenyl}-(5-trifluoromethyl-pyridin-2-yl)-amine], the inhibitory constant (Ki) at mouse TAAR1 came out at 0.0002 µM; on rat TAAR1 it was 0.0004 µM.

At mouse TAAR1, `N#Cc1ccc(N(c2ccc(CC[C@H]3COC(N)=N3)cc2)c2ccc(C#N)cn2)nc1` [Example 12, (S)-6,6′-(4-(2-(2-Amino-4,5-dihydrooxazol-4-yl)ethyl)phenylazanediyl)dinicotinonitrile] registered an inhibitory constant (Ki) of 0.111 µM.

Take `NC1=N[C@@H](CCc2ccc(Nc3ccccc3)cc2)CO1` [Example 13, (S)-4-[2-(4-Phenylamino-phenyl)-ethyl]-4,5-dihydro-oxazol-2-ylamine]: the Ki at mouse TAAR1 is 0.0013 µM; on rat TAAR1, 0.0001 µM.

As for `Cc1ccc(Nc2ccc(CC[C@H]3COC(N)=N3)cc2)cc1` [Example 14, (S)-4-(4-(p-Tolylamino)phenethyl)-4,5-dihydrooxazol-2-amine], the results for the Ki on mouse TAAR1 and at rat TAAR1 were 0.0008 µM and 0.0001 µM, respectively.

For `NC1=N[C@@H](CCc2ccc(Nc3ccc(Cl)cn3)cc2)CO1` [Example 15, {4-[2-((S)-2-Amino-4,5-dihydro-oxazol-4-yl)-ethyl]-phenyl}-(5-chloro-pyridin-2-yl)-amine], the Ki at mouse TAAR1 stood at 0.0005 µM; at rat TAAR1 it was 0.0001 µM.

In the case of `N#Cc1ccc(Nc2ccc(CC[C@H]3COC(N)=N3)cc2)nc1` [Example 16, 6-{4-[2-((S)-2-Amino-4,5-dihydro-oxazol-4-yl)-ethyl]-phenylamino}-nicotinonitrile], the Ki on mouse TAAR1 came out at 0.0015 µM; at rat TAAR1, 0.0004 µM.

In the case of `NC1=N[C@@H](CCc2ccc(Nc3cc(C(F)(F)F)ncn3)cc2)CO1` [Example 17, (S)-4-(4-(6-(Trifluoromethyl)pyrimidin-4-ylamino)phenethyl)-4,5-dihydrooxazol-2-amine], the Ki at mouse TAAR1 was determined as 0.0013 µM; at rat TAAR1, 0.0012 µM.

For `NC1=N[C@@H](CCc2ccc(Nc3ncc(Cl)cn3)cc2)CO1` [Example 18, {4-[2-((S)-2-Amino-4,5-dihydro-oxazol-4-yl)-ethyl]-phenyl}-(5-chloro-pyrimidin-2-yl)-amine], the results for the Ki at mouse TAAR1 and on rat TAAR1 were 0.0012 µM and 0.0002 µM, respectively.

As for `NC1=N[C@@H](CCc2ccc(Nc3ccc(Cl)c(Cl)c3)cc2)CO1` [Example 19, (S)-4-(4-(3,4-Dichlorophenylamino)phenethyl)-4,5-dihydrooxazol-2-amine], the Ki amounted to 0.0002 µM on mouse TAAR1 and 0.0001 µM on rat TAAR1.

On to `NC1=N[C@@H](CCc2ccc(Nc3ncc(F)cn3)cc2)CO1` [Example 20, {4-[2-((S)-2-Amino-4,5-dihydro-oxazol-4-yl)-ethyl]-phenyl}-(5-fluoro-pyrimidin-2-yl)-amine], for which the inhibition constant Ki was found to be 0.0224 µM at mouse TAAR1 and 0.004 µM at rat TAAR1.

`NC1=N[C@@H](CCc2ccc(Nc3ncccc3F)cc2)CO1` [Example 21, {4-[2-((S)-2-Amino-4,5-dihydro-oxazol-4-yl)-ethyl]-phenyl}-(3-fluoro-pyridin-2-yl)-amine]: the Ki stood at 0.02 µM on mouse TAAR1 and 0.0005 µM at rat TAAR1.

In the case of `NC1=N[C@@H](CCc2ccc(Nc3cc(F)ccn3)cc2)CO1` [Example 22, {4-[2-((S)-2-Amino-4,5-dihydro-oxazol-4-yl)-ethyl]-phenyl}-(4-fluoro-pyridin-2-yl)-amine], the Ki at mouse TAAR1 came to 0.0034 µM; on rat TAAR1, 0.0002 µM.
